Experimental data as given in patent publication US20250171457A1, “NITROGEN-CONTAINING HETEROCYCLIC COMPOUND HAVING NRF2 ACTIVATION EFFECT” (CHUGAI SEIYAKU KABUSHIKI KAISHA, priority 2022, published 2025).
Structures can show the parent of a compound that is named as a salt.

Tested on: Nrf2 transcriptional activity (pARE-Luc reporter) in HepG2 cells
Assay: In vitro Nrf2 transcriptional activity measurement by ARE-dependent reporter assay in HepG2 cell
Type: cell-based, human
Settings: Homo sapiens; HepG2 cells transfected with pARE-Luc, 4 hours at 37° C.; luciferase activity of Example 1-54 or Example 17-23 at 3.75 μM defined as 100%
Summary of the method: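 HepG2 cells transfected with pGL4.37 (pARE-Luc), replated onto compound and incubated 4 h at 37° C; luciferase read by Bright-Glo luminescence. Response normalized to 100% set by a reference compound at 3.75 μM; EC50 from dose-response curve.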

Row | Compound | EC50
1 | CCOC1(C)CN(c2cc(Cl)c(C(=O)N3COc4c(cccc4-c4cc(N5C6CCC5COC6)c(C(=O)O)cc4F)C3)c(Cl)c2)C1 [Compound 4-2, 4-[3-[2,6-Dichloro-4-(3-ethoxy-3-methylazetidin-1-yl)benzoyl]-2,4-dihydro-1,3-benzoxazin-8-yl]-5-fluoro-2-(3-oxa-8-azabicyclo[3.2.1]octan-8-yl)benzoic acid] | 1.2 nM
2 | C[C@@H]1CN(c2cc(Cl)c(C(=O)N3COc4c(cccc4-c4cc(N5C6CCC5COC6)c(C(=O)O)cc4F)C3)c(Cl)c2)CCN1C [Compound 10-3, 4-[3-[2,6-Dichloro-4-[(3R)-3,4-dimethylpiperazin-1-yl]benzoyl]-2,4-dihydro-1,3-benzoxazin-8-yl]-5-fluoro-2-(3-oxa-8-azabicyclo[3.2.1]octan-8-yl)benzoic acid] | 1.5 nM
3 | C[C@H]1CN(C)CCN1c1cc(Cl)c(C(=O)N2COc3c(cccc3-c3cc(N4C5CCC4COC5)c(C(=O)O)cc3F)C2)c(Cl)c1 [Compound 9-12, 4-[3-[2,6-Dichloro-4-[(2S)-2,4-dimethylpiperazin-1-yl]benzoyl]-2,4-dihydro-1,3-benzoxazin-8-yl]-5-fluoro-2-(3-oxa-8-azabicyclo[3.2.1]octan-8-yl)benzoic acid] | 3.1 nM
4 | CN1CCC(N2CCN(c3cc(Cl)c(C(=O)N4COc5c(cccc5-c5ccc(C(=O)O)c(N6CCOCC6)c5)C4)c(Cl)c3)CC2)CC1 [Compound 1-63, 4-[3-[2,6-Dichloro-4-[4-(1-methylpiperidin-4-yl)piperazin-1-yl]benzoyl]-2,4-dihydro-1,3-benzoxazin-8-yl]-2-morpholin-4-ylbenzoic acid] | 2.1 nM
5 | CN1CCC(N2CCN(c3cc(Cl)c(C(=O)N4COc5c(cccc5-c5cc(N6CCOCC6)c(C(=O)O)cc5F)C4)c(Cl)c3)CC2)CC1 [Compound 1-60, 4-[3-[2,6-Dichloro-4-[4-(1-methylpiperidin-4-yl)piperazin-1-yl]benzoyl]-2,4-dihydro-1,3-benzoxazin-8-yl]-5-fluoro-2-morpholin-4-ylbenzoic acid] | 4.2 nM
6 | Cn1cc(-c2cc(Cl)c(C(=O)N3COc4c(cccc4-c4cc(N5C6COCC5C6)c(C(=O)O)cc4F)C3)c(Cl)c2)cn1 [Compound 20-1, 4-[3-[2,6-Dichloro-4-(1-methylpyrazol-4-yl)benzoyl]-2,4-dihydro-1,3-benzoxazin-8-yl]-5-fluoro-2-(3-oxa-6-azabicyclo[3.1.1]heptan-6-yl)benzoic acid N,N-diethylethanamine salt] | 850 nM
7 | Cn1cc(-c2cc(Cl)c(C(=O)N3CSc4c(cccc4-c4cc(N5CCOCC5)c(C(=O)O)cc4F)C3)c(Cl)c2)cn1 [Compound 13-18, 4-[3-[2,6-Dichloro-4-(1-methylpyrazol-4-yl)benzoyl]-2,4-dihydro-1,3-benzothiazin-8-yl]-5-fluoro-2-morpholin-4-ylbenzoic acid] | 21 nM
8 | COc1cc(Cl)c(C(=O)N2COc3c(cccc3-c3cc(N4CCOCC4)c(C(=O)O)cc3F)C2)cc1OC [Compound 13-17, 4-[3-(2-Chloro-4,5-dimethoxybenzoyl)-2,4-dihydro-1,3-benzoxazin-8-yl]-5-fluoro-2-morpholin-4-ylbenzoic acid] | 5.9 nM
9 | O=C(O)c1ccc(-c2cccc3c2OCN(C(=O)c2c(Cl)cc(OCCCCO)cc2Cl)C3)cc1N1CCOCC1 [Compound 4-43, 4-[3-[2,6-Dichloro-4-(4-hydroxybutoxy)benzoyl]-2,4-dihydro-1,3-benoxazin-8-yl]-2-morpholin-4-ylbenzoic acid] | 7.4 nM
10 | O=C(O)c1cc(F)c(-c2cccc3c2OCN(C(=O)c2c(Cl)cc(N4CC5(C4)CN(C4COC4)C5)cc2Cl)C3)cc1N1C2CCC1COC2 [Compound 9-3, 4-[3-[2,6-Dichloro-4-[2-(oxetan-3-yl)-2,6-diazaspiro[3.3]heptan-6-yl]benzoyl]-2,4-dihydro-1,3-benzoxazin-8-yl]-5-fluoro-2-(3-oxa-8-azabicyclo[3.2.1]octan-8-yl)benzoic acid] | 19 nM
11 | CS(=O)(=O)C1CN(c2cc(Cl)c(C(=O)N3COc4c(cccc4-c4cc(N5CCOCC5)c(C(=O)O)cc4F)C3)c(Cl)c2)C1 [Compound 1-53, 4-[3-[2,6-Dichloro-4-(3-methylsulfonylazetidin-1-yl)benzoyl]-2,4-dihydro-1,3-benzoxazin-8-yl]-5-fluoro-2-morpholin-4-ylbenzoic acid] | 5 nM
12 | CN1CCOC2(C1)CN(c1cc(Cl)c(C(=O)N3COc4c(cccc4-c4cc(N5C6CCC5COC6)c(C(=O)O)cc4F)C3)c(Cl)c1)C2 [Compound 9-1, 4-[3-[2,6-Dichloro-4-(8-methyl-5-oxa-2,8-diazaspiro[3.5]nonan-2-yl)benzoyl]-2,4-dihydro-1,3-benzoxazin-8-yl]-5-fluoro-2-(3-oxa-8-azabicyclo[3.2.1]octan-8-yl)benzoic acid] | 3.5 nM
13 | Cn1cc2c(n1)CN(c1cc(Cl)c(C(=O)N3COc4c(cccc4-c4cc(N5C6CCC5COC6)c(C(=O)O)cc4F)C3)c(Cl)c1)C2 [Compound 1-46, 4-[3-[2,6-Dichloro-4-(2-methyl-4,6-dihydropyrrolo[3,4-c]pyrazol-5-yl)benzoyl]-2,4-dihydro-1,3-benzoxazin-8-yl]-5-fluoro-2-(3-oxa-8-azabicyclo[3.2.1]octan-8-yl)benzoic acid] | 1.9 nM
14 | C[C@@H]1CN(C)CCN1c1cc(Cl)c(C(=O)N2COc3c(cccc3-c3cc(N(C)[C@@H]4CCOC4)c(C(=O)O)cc3F)C2)c(Cl)c1 [Compound 16-13, 4-[3-[2,6-Dichloro-4-[(2R)-2,4-dimethylpiperazin-1-yl]benzoyl]-2,4-dihydro-1,3-benzoxazin-8-yl]-5-fluoro-2-[methyl-[(3R)-oxolan-3-yl]amino]benzoic acid] | 4.4 nM
15 | Cc1cc(N2CC3(C2)OCC(C)(C)CO3)cc(C)c1C(=O)N1COc2c(cccc2-c2cc(N3C4CCC3COC4)c(C(=O)O)cc2F)C1 [Compound 19-2, 4-[3-[4-(7,7-Dimethyl-5,9-dioxa-2-azaspiro[3.5]nonan-2-yl)-2,6-dimethylbenzoyl]-2,4-dihydro-1,3-benzoxazin-8-yl]-5-fluoro-2-(3-oxa-8-azabicyclo[3.2.1]octan-8-yl)benzoic acid] | 1.6 nM
16 | C[C@@H]1CN(c2cc(Cl)c(C(=O)N3COc4c(cccc4-c4cc(N5C6CCC5COC6)c(C(=O)O)cc4F)C3)c(Cl)c2)C[C@H](C)N1C [Compound 10-4] | 4.8 nM
17 | Cn1cc(-c2cc(Cl)c(C(=O)N3COc4c(cccc4-c4ccc(C(=O)O)c(N5CCSCC5)c4)C3)c(Cl)c2)cn1 [Compound 18-5, 4-[3-[2,6-Dichloro-4-(1-methylpyrazol-4-yl)benzoyl]-2,4-dihydro-1,3-benzoxazin-8-yl]-2-thiomorpholin-4-ylbenzoic acid] | 12 nM
18 | C[C@H]1CN(c2cc(Cl)c(C(=O)N3COc4c(cccc4-c4cc(N5C6CCC5COC6)c(C(=O)O)cc4F)C3)c(Cl)c2)CCN1C [Compound 10-5, 4-[3-[2,6-Dichloro-4-[(3S)-3,4-dimethylpiperazin-1-yl]benzoyl]-2,4-dihydro-1,3-benzoxazin-8-yl]-5-fluoro-2-(3-oxa-8-azabicyclo[3.2.1]octan-8-yl)benzoic acid] | 4.3 nM
19 | COC1COC2(CN(c3cc(Cl)c(C(=O)N4COc5c(cccc5-c5cc(N6C7CCC6COC7)c(C(=O)O)cc5F)C4)c(Cl)c3)C2)OC1 [Compound 5-3, 4-[3-[2,6-Dichloro-4-(7-methoxy-5,9-dioxa-2-azaspiro[3.5]nonan-2-yl)benzoyl]-2,4-dihydro-1,3-benzoxazin-8-yl]-5-fluoro-2-(3-oxa-8-azabicyclo[3.2.1]octan-8-yl)benzoic acid] | 9.5 nM
20 | Cn1cc(-c2cc(Cl)c(C(=O)N3COc4c(cccc4-c4c(F)cc(C(=O)O)c(N5CCOCC5)c4F)C3)c(Cl)c2)cn1 [Compound 13-4, 4-[3-[2,6-Dichloro-4-(1-methylpyrazol-4-yl)benzoyl]-2,4-dihydro-1,3-benzoxazin-8-yl]-3,5-difluoro-2-morpholin-4-ylbenzoic acid] | 24 nM
21 | O=C(O)c1cc(F)c(-c2cccc3c2OCN(C(=O)c2c(Cl)cc(N4CC(N5CCOCC5)C4)cc2Cl)C3)cc1N1C2CCC1COC2 [Compound 4-58, 4-[3-[2,6-Dichloro-4-(3-morpholin-4-ylazetidin-1-yl)benzoyl]-2,4-dihydro-1,3-benzoxazin-8-yl]-5-fluoro-2-(3-oxa-8-azabicyclo[3.2.1]octan-8-yl)benzoic acid] | 5.2 nM
22 | CC[C@@H](c1cccc2c1C(=O)NN(C(=O)c1c(Cl)cc(-c3cnn(C)c3)cc1Cl)C2)[C@@H](C)C(=O)O [Compound 17-5, (2R,3R)-3-[2-[2,6-Dichloro-4-(1-methylpyrazol-4-yl)benzoyl]-4-oxo-1,3-dihydrophthalazin-5-yl]-2-methylpentanoic acid] | 17 nM
23 | O=C(O)c1cc(F)c(-c2cccc3c2OCN(C(=O)c2c(Cl)cc(N4CCNCC4)cc2Cl)C3)cc1N1C2CCC1COC2 [Compound 20-8, 4-[3-(2,6-Dichloro-4-piperazin-1-ylbenzoyl)-2,4-dihydro-1,3-benzoxazin-8-yl]-5-fluoro-2-(3-oxa-8-azabicyclo[3.2.1]octan-8-yl)benzoic acid] | 18 nM
24 | O=C(O)c1cc(F)c(-c2cccc3c2OCN(C(=O)c2c(Cl)cc(N4CC5(CCN5CC(F)F)C4)cc2Cl)C3)cc1N1C2CCC1COC2 [Compound 7-4, 4-[3-[2,6-Dichloro-4-[1-(2,2-difluoroethyl)-1,6-diazaspiro[3.3]heptan-6-yl]benzoyl]-2,4-dihydro-1,3-benzoxazin-8-yl]-5-fluoro-2-(3-oxa-8-azabicyclo[3.2.1]octan-8-yl)benzoic acid] | 4.3 nM
25 | O=C(O)c1cc(F)c(-c2cccc3c2OCN(C(=O)c2ccc(N4CCN(C5COC5)CC4)cc2Cl)C3)cc1N1CCOCC1 [Compound 1-70, 4-[3-[2-Chloro-4-[4-(oxetan-3-yl)piperazin-1-yl]benzoyl]-2,4-dihydro-1,3-benzoxazin-8-yl]-5-fluoro-2-morpholin-4-ylbenzoic acid] | 4.7 nM
